Here are results for 2 molecules from the NIST ThermoML archive (doi:10.1016/j.jct.2008.08.012).

The conditions of series [1]: Crystal; for mass density: 298.15 K, 101.33 kPa, mass and volume of pellet; for Normal melting temperature: DTA.
The nature of series [2]: Molar enthalpy of transition or fusion. Conditions: Crystal; DSC.

± gives the expanded uncertainty stated by the source.

As to `O=C1Cc2ccccc2CO1` [1,4-dihydro-3H-2-benzopyran-3-one], in series [1], the mass density is 1140 ± 10 kg/m3 and the Normal melting temperature is 82.73 ± 0.39 °C. Also, the “Molar enthalpy of transition or fusion” value in series [2] is 4.37 ± 0.112 kcal/mol.
Regarding `O=C1CCOc2ccccc21` [2,3-dihydro-4H-1-benzopyran-4-one], in series [1], the mass density is 1140 ± 10 kg/m3 and the Normal melting temperature came to 39.13 ± 0.39 °C. Further, the “Molar enthalpy of transition or fusion” value in series [2] stood at 4 ± 0.129 kcal/mol.

A word on the mass density: it is the mass of a sample divided by its volume.
